Values of other authors as cited in patent US7288243B2, “Aerosol drug inhibition of lung metastases” (Research Development Foundation, priority 2002, dated 2007).

Conditions: concurrent administration of cyclosporin; clinical studies

For `CC(=O)O[C@H]1C(=O)[C@@]2(C)[C@H]([C@H](OC(=O)c3ccccc3)[C@]3(O)C[C@H](OC(=O)[C@H](O)[C@@H](NC(=O)c4ccccc4)c4ccccc4)C(C)=C1C3(C)C)[C@]1(OC(C)=O)CO[C@@H]1C[C@@H]2O` [paclitaxel], the “Increase of bioavailability of paclitaxel administered orally” value is listed as 9 fold.
